The structures appear in SMILES notation.

The first data set deals with steroid 5α-reductase. Kind of data set: in vitro steroid 5α-reductase inhibitory activity using ventral prostate tissue from male rats. The settings on record: rat ventral prostate particulate; [3H]-testosterone substrate, pH 6.5, 37° C., 30 minutes. Format: biochemical. From the text:
The compounds of the formula (I) may be tested in vitro for steroid 5α-reductase inhibitory activity using prostate tissue from rats or humans as follows:
(i) The compounds of the formula (I) may be tested for their potency in inhibiting rat steroid 5α-reductase using ventral prostate tissue from male rats. In determining inhibitory potency against rat prostatic 5α-reductase the following procedure was employed:
Rat prostates were minced into small pieces. The tissue was homogenised in Buffer A (20 mM sodium phosphate, pH 6.5, buffer containing 0.32M sucrose and 1 mM dithiothreitol) with a Brinkman Polytron (Kinematica, Luzern, GmBH), and then homogenised with a motor driven (1000 rpm) Potter Elvehjem (teflon-to-glass) homogeniser. Prostate particles were obtained by centrifugation at 105,000 G for 60 minutes. The pellet was washed in 4 volumes of Buffer A and recentrifuged at 105,000 G. The resulting pellet was dispersed in Buffer A (1 ml per g of prostate tissue originally used) with a motor driven Potter Elvehjem homogeniser as described above. The particulate suspension was stored as 1 ml samples at -70° C.
The following components, dissolved in Buffer B (40 mM sodium phosphate buffer, pH 6.5), were added to test tubes: 500 μl of [^3 H]-testosterone (1 μCi, 1 nmol; Du Pont, NEN Research Products, Stevenage, U.K.), 100 μl of 0.5 mM NADPH, a compound of the formula (I) dissolved in 5 μl of dimethyl sulphoxide, and Buffer B to give a final reaction volume of 1 ml. The mixture was warmed to 37° C. and the reaction started by addition of an aliquot of prostate particulate suspension. The reaction mixture was incubated at 37° C. for 30 minutes and then quenched by addition with vigorous mixing of 2 ml of ethyl acetate containing 20 μg each of testosterone and 5α-dihydrotestosterone as carriers. The aqueous and organic layers were separated by centrifugation at 2000 G for 10 minutes. The organic layer was transferred to a second test tube and evaporated to dryness under nitrogen. The residue was dissolved in 50-80 μl of absolute ethanol and spotted onto a silica gel 60 F254 TLC plate (E. Merck, Darmstadt, Germany) and developed in chloroform:acetone (185:15).
The radiochemical content in the bands of the substrate (testosterone) and the product (5α-dihydrotestosterone) were determined with a RITA Radio TLC Analyser (Raytest Instruments Ltd., Sheffield, U.K.). The percent of recovered radiolabel converted to 5α-dihydrotestosterone was calculated and used to determine enzyme activity. All incubations were conducted so that no more than 15% of substrate (testosterone) was converted to product.
The experimentally obtained data for a range of inhibitor concentrations was computer fitted to a sigmoidal dose-response curve and concentrations of compound giving 50% inhibition of 5α-reductase activity (IC50 's) were calculated using a SIGFIT program (De Lean, A., Munson, P. J. and Rodbard, D., American Journal of Physiology, 235, E97 (1978)).
A selection of compounds of the formula (I) was tested in vitro for steroid 5α-reductase inhibitory activity using ventral prostate tissue from male rats according to the procedure outlined on pages 35 to 37 of the description.
Broadly, the IC50 is the point on the concentration scale where inhibition reaches its midpoint. A high value points to weaker potency in that assay. Take `CC(C)Cc1ccc(C2(C)Oc3ccc(C(=O)c4cn(CCCC(=O)O)c5ccccc45)cc3O2)cc1` (racemic) [Example 2, 4-[3-([2-methyl-2-(4-[2-methylpropyl]phenyl)-1,3-benzodioxolan-5-yl]carbonyl)indol-1-yl]butanoic acid]: the 50% inhibitory concentration (IC50) was found to be 11.4 nM.

`CC(C)Cc1ccc(C2(C)Oc3ccc(C(=O)c4cn(CCCC(=O)O)c5ccccc45)cc3O2)cc1` (single isomer, unassigned; (-)) [Example 4, (-)-4-[3-([2-methyl-2-(4-[2-methylpropyl]phenyl)-1,3-benzodioxolan-5-yl]carbonyl)indol-1-yl]butanoic acid] showed an IC50 of 10.3 nM. This IC50 and that of the compound before are within 1.5-fold of each other.

In turn, `O=C(O)CCCn1cc(C(=O)c2ccc3c(c2)OC(c2ccccc2)(c2ccccc2)O3)c2ccccc21` [Example 1] gave an IC50 of 2.7 nM.

In turn, `CCCc1ccc(C2(c3ccc(CCC)cc3)Oc3ccc(C(=O)c4cn(CCCC(=O)O)c5ccccc45)cc3O2)cc1` [Example 5] had an IC50 of 33.7 nM.

`O=C(O)CCCn1cc(C(=O)c2ccc3c(c2)OC(c2ccc(Cl)cc2)(c2ccc(Cl)cc2)O3)c2ccccc21` [Example 6]: the IC50 worked out at 15.6 nM.

The compound `O=C(O)CCCn1cc(C(=O)c2ccc3c(c2)OC(c2ccc(F)cc2)(c2ccc(F)cc2)O3)c2ccccc21` [Example 7] registered an IC50 of 10.7 nM. The IC50 values of the last two compounds are within 1.5-fold of each other.

Take `CCCCC1(c2ccc(CCC)cc2)Oc2ccc(C(=O)c3cn(CCCC(=O)O)c4ccccc34)cc2O1` (centres unmarked) [Example 8]: the IC50 came to 2.9 nM.

For `CC1(c2ccc(OCc3ccccc3)cc2)Oc2ccc(C(=O)c3cn(CCCC(=O)O)c4ccccc34)cc2O1` (centres unmarked) [Example 9], the IC50 is 67.5 nM.

Turning to `O=C(O)CCCn1cc(C(=O)c2ccc3c(c2)OC2(CCCc4ccccc42)O3)c2ccccc21` (centres unmarked) [Example 10], the half-inhibitory concentration (IC50) came to 7.91 nM. Against the preceding compound, the IC50 is about 8.5-fold lower.

Regarding `CC1(c2ccccc2)Oc2ccc(C(=O)c3cn(CCCC(=O)O)c4ccccc34)cc2O1` (centres unmarked) [Example 14], half-maximal inhibition (IC50) required 21.1 nM.

On to `O=C(O)CCCn1cc(C(=O)c2ccc3c(c2)OC(c2cccs2)(c2cccs2)O3)c2ccccc21` [Example 15], for which inhibition was half-maximal at 5.29 nM (IC50).

For `CC1(C2CCCCC2)Oc2ccc(C(=O)c3cn(CCCC(=O)O)c4ccccc34)cc2O1` (centres unmarked) [Example 19], it took 11 nM to reach half-maximal inhibition (IC50).

Take `CCCc1ccc(C2(CC)Oc3ccc(C(=O)c4cn(CCCC(=O)O)c5ccccc45)cc3O2)cc1` (centres unmarked) [Example 27]: the IC50 turned out to be 1.41 nM.

`COc1ccc(C2(C)Oc3ccc(C(=O)c4cn(CCCC(=O)O)c5ccccc45)cc3O2)cc1` (centres unmarked) [Example 29]: the IC50 is 3.67 nM.

In turn, `O=C(O)CCCn1cc(C(=O)c2ccc3c(c2)OC2(CCC(c4ccccc4)C2)O3)c2ccccc21` (centres unmarked) [Example 31] had an IC50 of 5.56 nM.

In the case of `O=C(O)CCCCn1cc(C(=O)c2ccc3c(c2)OC(c2ccccc2)(c2ccccc2)O3)c2ccccc21` [Example 34], the IC50 came to 264 nM. Compared with the last compound, the IC50 is about 47-fold higher.

With `O=C(O)CCCn1cc(C(=O)Cc2ccc3c(c2)OC(c2ccccc2)(c2ccccc2)O3)c2ccccc21` [Example 35], the IC50 was 42.6 nM.

`CC(C)Cc1ccc(C2(C)Oc3ccc(CC(=O)c4cn(CCCC(=O)O)c5ccccc45)cc3O2)cc1` (centres unmarked) [Example 36]: the IC50 was found to be 251 nM.

`O=C(O)CCCn1cc(C(=O)Cc2ccc3c(c2)OC(c2ccc(Cl)cc2)(c2ccc(Cl)cc2)O3)c2ccccc21` [Example 37] registered an IC50 of 100 nM.

Compound `Cc1c(C(=O)c2ccc3c(c2)OC(c2ccccc2)(c2ccccc2)O3)c2ccccc2n1CCCC(=O)O` [Example 39] yielded an IC50 of 270 nM.

`Cc1c(C(=O)c2ccc3c(c2)OC(C)(c2ccc(CC(C)C)cc2)O3)c2ccccc2n1CCCC(=O)O` (centres unmarked) [Example 40] yielded an IC50 of 260 nM. The IC50 values of the last two compounds are within 1.5-fold of each other.

With `CCCc1ccc(C2(c3ccc(OC)cc3)Oc3ccc(C(=O)c4cn(CCCC(=O)O)c5ccccc45)cc3O2)cc1` (centres unmarked) [Example 45], half-maximal inhibition (IC50) required 7.84 nM. This IC50 is about 33-fold lower than that of the compound before.

For the next data set, the system named is mice. Kind of data set: Toxicity Study, oral administration to mice. Format: in vivo. The settings on record: up to a dose of 1000 mg/kg, throughout the duration of the study.
Consider `CC(C)Cc1ccc(C2(C)Oc3ccc(C(=O)c4cn(CCCC(=O)O)c5ccccc45)cc3O2)cc1` (single isomer, unassigned; (-)) [Example 4, (-)-4-[3-([2-methyl-2-(4-[2-methylpropyl]phenyl)-1,3-benzodioxolan-5-yl]carbonyl)indol-1-yl]butanoic acid], for which the appearance and behaviour result is “normal appearance and behaviour”.

Source of the values: patent publication US5767139A, “Indoles which have steroid 5-α reductase inhibitory activity” (Pfizer, Inc., priority 1992, dated 1998).
